Experimental data reported in patent publication US20240002846A1, “COMPOSITIONS AND METHODS FOR THE DIAGNOSIS AND TREATMENT OF ITCH” (Duke University, priority 2020, published 2024).
Entries after “also recorded” stand apart in the source; their conditions may differ.

Assays:
mice [1] = test: Effect of inhibitor pretreatment on LPA-, LPC- or miR-146a-induced scratching behavior; type: in vivo, mouse; settings: for effect on scratching evoked by i.d. miR-146a (4 nmol) (TLR inhibitors): i.p. 10 mg/kg
Experimental: Behavioral assessment. Mice were shaved at the dorsal neck 1 d before experiments. […] After injections, mice were immediately placed back to the chamber, and the scratching behavior was recorded by a Panasonic video camera for 30 min. Hind limb scratching behavior directed toward the injected area at the nape of neck was observed. One scratch is defined as a lifting of the hind limb toward the injection site and then a replacing of the limb back to the floor, regardless of how many scratching strokes take place between those two movements. Behavioral analysis was conducted by observers blinded to genotype.
Control animals received the same volume of vehicles.
Lumbar puncture was made with a 30G-needle and drugs at 5 μL of volume were delivered. Scratching behavior assay was started approximately 2 weeks after resiniferatoxin treatment.

mouse keratinocytes = test: Ca2+ imaging in cultured mouse keratinocytes; type: cell-based; settings: for LPA (18:1) induced Ca2+ influx: up to 30 μM; for effect on LPC 18:1 (10 μM)-induced Ca2+ influx (GPCR-signaling inhibitors): inhibitor 10 μM
Experimental: Basal keratinocytes were separated from the cornified sheets by filtration through a […] cell strainer. Keratinocytes were plated on collagen I-coated dishes or glass coverslips and grown in EME media (Gibco, Gaithersburg, MD) containing 8% chelex (Bio-rad, Hercules, CA)-treated FBS with the final Ca^2+ adjusted to 0.05 mM, bovine pituitary extract (50 μg/mL), epidermal growth factor (5 ng/mL), and lx antibiotics/antimycotics (Gibco, Gaithersburg, MD) in a humidified incubator with 5% CO2 at 37° C. for 5-7 days until use. To knockdown Trpv4 in isolated keratinocytes from newborn keratinocyte-Trpv4 cKO mice, cells were treated with 4-OH tamoxifen at 500 nM for 72 h.
(§1) In vitro and ex vivo Ca^2+ imaging. […] Ca^2+ imaging of cultured cells in response to chemicals was conducted after loading with 5 μM Fura2-AM (Invitrogen, Waltham, MA) for 45 min after a ratiometric Ca^2+-imaging protocol with 340/380-nm blue light for dual excitation. Ratios of emissions were acquired at 0.5 Hz. ΔR/R0 was determined as the fraction of the increase of a given ratio over baseline ratio divided by baseline ratio. […] Control cells received vehicles.

mice [2] = test: Scratching behavior after i.d. injection into dorsal neck skin; type: in vivo, mouse; settings: for scratching behavior (itch) induced by i.d. injection of lipid: i.d. into dorsal neck, LPA 18:1 500 μg, LPC 50-500 μg, LPC species at the same dose
Experimental: Behavioral assessment. Mice were shaved at the dorsal neck 1 d before experiments. Mice were allowed to acclimate to a Plexiglas chamber for at least 30 min before testing and received intradermal (i.d.) injection of 50 μL of LPA 18:1, LPC, LPC 14:0, LPC 16:0, LPC 18:0, LPC 18:1, miR-146a mimic, miR-146a scramble, ATP or vehicles through a 30-gauge needle (Becton Dickinson, Franklin Lakes, NJ) into the neck skin. After injections, mice were immediately placed back to the chamber, and the scratching behavior was recorded by a Panasonic video camera for 30 min. Hind limb scratching behavior directed toward the injected area at the nape of neck was observed. One scratch is defined as a lifting of the hind limb toward the injection site and then a replacing of the limb back to the floor, regardless of how many scratching strokes take place between those two movements. Behavioral analysis was conducted by observers blinded to genotype.

human keratinocytes = test: Ca2+ imaging in cultured human keratinocytes; type: cell-based; settings: for LPA (18:1) induced Ca2+ influx: up to 30 μM; for effect on LPC 18:1 (10 μM)-induced Ca2+ influx (GPCR-signaling inhibitors): inhibitor 10 μM
Experimental: In brief, surgically discarded foreskin samples, obtained from Duke Children's Hospital in accordance to institutionally approved IRB protocol, were incubated with Dispase (Gibco, Gaithersburg, MD, 4 U/mL) for 12-16 h at 4° C. followed by 0.05% trypsin (Gibco, Gaithersburg, MD) for 10-20 min at 37° C. Cells were maintained in keratinocyte serum-free media (Invitrogen, Waltham, MA) with 5% CO2 at 37° C. and used at passage 2-3.
as §1

hTRPV4 = biological target: T1, hTRPV4 (Homo sapiens, UniProt Q9HBA0); test: Ca2+ imaging in HEK cells transfected with hTRPV4; type: cell-based; settings: inhibitor 10 μM
T1 construct: expressed in transfected cells; host or cells: HEK293 (ATCC CRL-1573)
T1 sequence (Q9HBA0 whole entry): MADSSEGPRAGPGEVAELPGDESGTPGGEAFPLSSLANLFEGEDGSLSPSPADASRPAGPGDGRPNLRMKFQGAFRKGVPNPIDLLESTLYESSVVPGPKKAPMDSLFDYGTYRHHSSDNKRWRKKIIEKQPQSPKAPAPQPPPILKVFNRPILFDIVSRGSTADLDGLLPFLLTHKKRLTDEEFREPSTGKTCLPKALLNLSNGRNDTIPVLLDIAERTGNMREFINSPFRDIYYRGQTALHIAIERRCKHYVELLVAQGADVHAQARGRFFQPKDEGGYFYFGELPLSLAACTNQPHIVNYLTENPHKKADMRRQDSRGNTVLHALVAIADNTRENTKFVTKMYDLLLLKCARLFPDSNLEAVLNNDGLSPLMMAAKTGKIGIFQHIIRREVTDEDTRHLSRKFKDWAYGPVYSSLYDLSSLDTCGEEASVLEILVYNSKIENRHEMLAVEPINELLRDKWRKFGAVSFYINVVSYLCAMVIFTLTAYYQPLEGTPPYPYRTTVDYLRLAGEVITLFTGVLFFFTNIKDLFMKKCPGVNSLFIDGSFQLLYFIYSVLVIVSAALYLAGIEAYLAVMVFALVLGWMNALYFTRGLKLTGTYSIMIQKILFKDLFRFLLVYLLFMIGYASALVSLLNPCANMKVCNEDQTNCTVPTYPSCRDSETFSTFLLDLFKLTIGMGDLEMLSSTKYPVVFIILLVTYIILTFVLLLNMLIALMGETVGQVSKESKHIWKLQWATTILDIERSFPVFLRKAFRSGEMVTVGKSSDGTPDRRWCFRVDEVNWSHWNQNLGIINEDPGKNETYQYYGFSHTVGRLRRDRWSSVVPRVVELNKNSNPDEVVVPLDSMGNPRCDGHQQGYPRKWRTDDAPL
Experimental: Cell culture and transfection. HEK293 cells (ATCC® CRL-1573) were cultured on poly-D-lysine coated coverslips in 24-well plate containing DMEM media with high-Glucose (Gibco, Gaithersburg, MD) supplemented with 10% fetal bovine serum (FBS, HyClone Laboratories, Logan, UT) and 100 U/mL of penicillin/streptomycin (Gibco, Gaithersburg, MD). Cell cultures were maintained with 5% of CO2 in a humidified incubator at 37° C. HEK cells were transfected with rat or human wild type or mutant TRPV4 channels with EGFP or YFP coupled to their C-termini (1.5 μg of plasmid for excised patch clamp and Ca^2+ imaging and 200 ng for single-channel experiments). The jetPEI™ Polyplus transfection reagent (Polyplus Transfection, New York, NY) for electrophysiology or Lipofectamine™ 2000 Reagent (Invitrogen, Waltham, MA) for Ca^2+ imaging were used for transfections per manufacturer's instructions as previously described (Chen et al. Pain 2014, 155, 2662-2672; Morales-Lazaro et al. Nat. Commun. 2016, 7, 13092). To investigate whether miR-146a can directly activate TRPV1 channels or indirectly via TLRs, HEK293 cells were transfected with rTRPV1 or co-transfected rTRPV1 with rTLR7, rTLR2, or rTLR6 (Addgene, Watertown, MA) for Ca^2+ imaging assay. Control cells were transfected with GFP or YFP.
In vitro and ex vivo Ca^2+ imaging. Routine procedures were followed for Ca^2+ imaging in cultured DRG sensory neurons, epidermal keratinocytes, and HEK cells (Chen et al. J. Biol. Chem. 2016, 291, 10252-10262; Chen et al. Pain 2014, 155, 2662-2672). Ca^2+ imaging of cultured cells in response to chemicals was conducted after loading with 5 μM Fura2-AM (Invitrogen, Waltham, MA) for 45 min after a ratiometric Ca^2+-imaging protocol with 340/380-nm blue light for dual excitation. Ratios of emissions were acquired at 0.5 Hz. ΔR/R0 was determined as the fraction of the increase of a given ratio over baseline ratio divided by baseline ratio. To investigate the effects of the TRPV4 inhibitors GSK205 or HC067047, the PLC inhibitor U73122, the Gag G Protein inhibitor BIM46187, the Gβγ G protein inhibitor Gallein, the TRPV1 inhibitor SB366791, the TRPA1 inhibitor HC030031, and IPP for TRPV3, on LPA-induced Ca^2+ influx, LPC-induced Ca^2+ influx, or miR-146α-induced Ca^2+ influx, cells were incubated with the inhibitors for 15 min before stimulation. Control cells received vehicles.

O=C(CCN1CCN(C(=O)OCc2cc(Cl)cc(Cl)c2)CC1)c1ccc2[nH]c(=O)oc2c1 [PF8380]
effect on LPC-induced itch (autotaxin inhibitor), WT mice (mice [1]; i.p. pretreatment 10 mg/kg, WT mice): attenuated

lysophosphatidic acid [LPA (18:1)]
LPA (18:1) induced Ca2+ influx (mouse keratinocytes): not dose-dependent and was less robust than that of LPC
LPA (18:1) induced Ca2+ influx (mouse keratinocytes; listed as LPA): much reduced
scratch bouts (mice [2]; i.d. 500 μg into dorsal neck, WT mice): 58 scratch bouts in 30 min
scratching behavior (itch) induced by i.d. injection of lipid (mice [2]): elicited moderate scratching; also recorded: induced itch
LPA (18:1) induced Ca2+ influx (human keratinocytes): not dose-dependent and was less robust than that of LPC
LPA (18:1) induced Ca2+ influx (human keratinocytes; listed as LPA): much reduced

LPC 14:0
scratching behavior (itch) induced by i.d. injection of lipid (mice [2]): caused robust itch

COc1ccc2c(c1)CC[C@@H]1[C@@H]2CC[C@]2(C)[C@@H](NCCCCCCN3C(=O)C=CC3=O)CC[C@@H]12 [U73122]
effect on LPC 18:1 (10 μM)-induced Ca2+ influx (GPCR-signaling inhibitors) (hTRPV4): no inhibitory effects; also recorded: not significantly altered
effect on LPC 18:1 (10 μM)-induced Ca2+ influx (GPCR-signaling inhibitors) (mouse keratinocytes): no inhibitory effects; also recorded: not significantly altered
effect on LPC 18:1 (10 μM)-induced Ca2+ influx (GPCR-signaling inhibitors) (human keratinocytes): no inhibitory effects; also recorded: not significantly altered

c1cc(-c2nc3ccc(OCCCN4CCCC4)cc3o2)ccc1OCCCN1CCCC1 [E6446]
effect on scratching evoked by i.d. miR-146a (4 nmol) (TLR inhibitors) (mice [1]): not significantly altered

N[C@@H](CSSC[C@H](N)C(=O)N1CCn2cc(-c3ccccc3)nc2[C@@H]1CC1CCCCC1)C(=O)N1CCn2cc(-c3ccccc3)nc2[C@@H]1CC1CCCCC1 [BIM46187]
effect on LPC 18:1 (10 μM)-induced Ca2+ influx (GPCR-signaling inhibitors) (hTRPV4): not significantly altered
effect on LPC 18:1 (10 μM)-induced Ca2+ influx (GPCR-signaling inhibitors) (hTRPV4; listed as BIM-46187): no inhibitory effects
effect on LPC 18:1 (10 μM)-induced Ca2+ influx (GPCR-signaling inhibitors) (mouse keratinocytes): not significantly altered
effect on LPC 18:1 (10 μM)-induced Ca2+ influx (GPCR-signaling inhibitors) (mouse keratinocytes; listed as BIM-46187): no inhibitory effects
effect on LPC 18:1 (10 μM)-induced Ca2+ influx (GPCR-signaling inhibitors) (human keratinocytes): not significantly altered
effect on LPC 18:1 (10 μM)-induced Ca2+ influx (GPCR-signaling inhibitors) (human keratinocytes; listed as BIM-46187): no inhibitory effects

O=C1OC2(c3ccccc31)c1ccc(O)c(O)c1Oc1c2ccc(O)c1O [Gallein]
effect on LPC 18:1 (10 μM)-induced Ca2+ influx (GPCR-signaling inhibitors) (hTRPV4): no inhibitory effects; also recorded: not significantly altered
effect on LPC 18:1 (10 μM)-induced Ca2+ influx (GPCR-signaling inhibitors) (mouse keratinocytes): no inhibitory effects; also recorded: not significantly altered
effect on LPC 18:1 (10 μM)-induced Ca2+ influx (GPCR-signaling inhibitors) (human keratinocytes): no inhibitory effects; also recorded: not significantly altered

O=C(O)CC1CC(c2ccccc2)=NO1 (centres unmarked) [GIT27]
effect on scratching evoked by i.d. miR-146a (4 nmol) (TLR inhibitors) (mice [1]): not significantly altered

Nc1ncnc2c1ncn2[C@@H]1O[C@H](COP(=O)(O)OP(=O)(O)OP(=O)(O)O)[C@@H](O)[C@H]1O [ATP, adenosine triphosphate]
scratching behavior induced by i.d. ATP (mice [2]; i.d. 10 nmol or 100 nmol vs normal saline): not to have any pruritogenic effects; also recorded: did not elicit significant scratching behaviors
